Where two headings read alike, the source gives them in different places.
Tests used:
Rhesus PDE2A3 = Rhesus PDE2A3 (Macaca mulatta, UniProt B3VTJ2); assay: PDE2 fluorescence polarization (IMAP FP) assay, rhesus PDE2A3; type: biochemical, rhesus macaque
human PDE2A1 = human PDE2A1 (Homo sapiens (Human), UniProt O00408); assay: PDE selectivity IMAP FP assay, human PDE2A1; type: biochemical; details: Human PDE2
In short: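 Compound titrations run against PDE2 in Tris HCl pH 7.2 buffer with MgCl2 and DTT for 60 min at room temperature, using 50 nM FAM-cAMP plus 1000 nM cGMP and enzyme giving 20% conversion.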

[1] = Lab B, read-out: Rhesus PDE2 Ki (nM) Lab B
[2] = Lab B, read-out: Human PDE2 Ki (nM) Lab B
[3] = Lab A, read-out: Rhesus PDE2 Ki (nM) Lab A
[4] = Lab A, read-out: Human PDE2 Ki (nM) Lab A

Chain of Rhesus PDE2A3 (B3VTJ2 1-941): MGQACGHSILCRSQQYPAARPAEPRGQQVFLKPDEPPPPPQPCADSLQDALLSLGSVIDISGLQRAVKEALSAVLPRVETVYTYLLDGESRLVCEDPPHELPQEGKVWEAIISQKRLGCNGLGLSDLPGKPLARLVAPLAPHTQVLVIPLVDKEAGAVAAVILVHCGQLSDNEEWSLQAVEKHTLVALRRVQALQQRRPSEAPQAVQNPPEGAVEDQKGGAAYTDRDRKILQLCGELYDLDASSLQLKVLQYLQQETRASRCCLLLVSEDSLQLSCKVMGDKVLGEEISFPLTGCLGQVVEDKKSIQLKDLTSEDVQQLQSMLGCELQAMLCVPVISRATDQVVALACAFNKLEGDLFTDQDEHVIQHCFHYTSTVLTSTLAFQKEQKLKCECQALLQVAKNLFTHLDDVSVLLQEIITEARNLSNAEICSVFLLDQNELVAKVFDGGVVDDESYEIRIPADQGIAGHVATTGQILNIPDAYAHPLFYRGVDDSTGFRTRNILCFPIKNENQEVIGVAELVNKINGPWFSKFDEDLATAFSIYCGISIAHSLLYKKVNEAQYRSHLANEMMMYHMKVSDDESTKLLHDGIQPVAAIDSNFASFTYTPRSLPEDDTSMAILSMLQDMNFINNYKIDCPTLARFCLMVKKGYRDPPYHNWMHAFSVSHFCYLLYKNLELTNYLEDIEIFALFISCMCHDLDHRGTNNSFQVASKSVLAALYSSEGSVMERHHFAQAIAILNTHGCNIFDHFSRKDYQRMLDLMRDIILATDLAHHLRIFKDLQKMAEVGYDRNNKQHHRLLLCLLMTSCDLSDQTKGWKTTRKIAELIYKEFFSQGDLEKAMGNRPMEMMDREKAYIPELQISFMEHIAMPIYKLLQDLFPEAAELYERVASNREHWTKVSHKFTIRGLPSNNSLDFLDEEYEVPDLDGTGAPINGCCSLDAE
Chain of human PDE2A1 (O00408 other isoform, or with tags, fused parts or gaps): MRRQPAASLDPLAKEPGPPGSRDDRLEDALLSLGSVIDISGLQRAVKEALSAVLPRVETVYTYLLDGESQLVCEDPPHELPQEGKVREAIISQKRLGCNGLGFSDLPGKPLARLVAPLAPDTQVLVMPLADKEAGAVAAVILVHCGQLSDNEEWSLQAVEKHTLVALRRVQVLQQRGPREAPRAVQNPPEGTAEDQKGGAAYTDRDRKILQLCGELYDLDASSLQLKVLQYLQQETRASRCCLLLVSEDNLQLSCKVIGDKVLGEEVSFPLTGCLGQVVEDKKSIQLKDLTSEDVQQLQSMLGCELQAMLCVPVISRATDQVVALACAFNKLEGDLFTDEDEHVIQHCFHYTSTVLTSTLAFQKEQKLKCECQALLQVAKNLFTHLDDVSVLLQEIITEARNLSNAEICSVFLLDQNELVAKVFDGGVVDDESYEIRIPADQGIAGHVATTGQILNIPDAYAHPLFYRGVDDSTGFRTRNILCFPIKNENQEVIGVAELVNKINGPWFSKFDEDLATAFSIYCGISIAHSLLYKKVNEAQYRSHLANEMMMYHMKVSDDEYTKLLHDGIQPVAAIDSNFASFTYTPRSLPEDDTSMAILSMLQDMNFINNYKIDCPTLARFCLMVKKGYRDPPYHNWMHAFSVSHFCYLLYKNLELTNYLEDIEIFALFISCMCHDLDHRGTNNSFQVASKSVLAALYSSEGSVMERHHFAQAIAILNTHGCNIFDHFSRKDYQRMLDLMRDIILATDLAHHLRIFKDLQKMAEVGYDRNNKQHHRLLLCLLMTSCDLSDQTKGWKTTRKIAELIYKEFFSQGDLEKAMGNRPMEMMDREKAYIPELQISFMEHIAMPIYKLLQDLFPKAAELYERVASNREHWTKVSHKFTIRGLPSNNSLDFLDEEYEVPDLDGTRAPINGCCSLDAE

| Structure (SMILES) | Ki (Rhesus PDE2A3; [1]) | Ki (human PDE2A1; [2]) | Ki (Rhesus PDE2A3; [3]) | Ki (human PDE2A1; [4]) |
| --- | --- | --- | --- | --- |
| CC(c1ccc(OC(F)(F)F)cc1)n1nc(C(F)F)c2c(=O)[nH]c(O)nc21 (single isomer, unassigned) [Example 274, (S)- or (R)-3-(Difluoromethyl)-6-hydroxy-1-(1-(4-(trifluoromethoxy)phenyl)ethyl)-1H-pyrazolo[3,4-d]pyrimidin-4(5H)-one] | 3.2 nM | 4 nM | – | – |
| CC(c1ccc(C(F)(F)F)c(F)c1)n1nc(C(F)F)c2c(=O)[nH]c(O)nc21 (single isomer, unassigned) [Example 278, (S)- or (R)-3-(Difluoromethyl)-1-(1-(3-fluoro-4-(trifluoromethyl)phenyl)ethyl)-6-hydroxy-1H-pyrazolo[3,4-d]pyrimidin-4(5H)-one] | 1.2 nM | 1.6 nM | – | – |
| CC(C)C(c1ccc(C(F)(F)F)cc1)n1nc(C(F)F)c2c(=O)[nH]c(O)nc21 (single isomer, unassigned) [Example 281, (R)- or (S)-3-(Difluoromethyl)-6-hydroxy-1-(2-methyl-1-(4-(trifluoromethyl)phenyl)propyl)-1H-pyrazolo[3,4-d]pyrimidin-4(5H)-one] | 1.2 nM | 1.3 nM | – | – |
| CC(c1ccc(OC(F)(F)F)c(F)c1)n1nc(C(F)F)c2c(=O)[nH]c(O)nc21 (single isomer, unassigned) [Example 287, (R)- or (S)-3-(Difluoromethyl)-1-(1-(3-fluoro-4-(trifluoromethoxy)phenyl)ethyl)-6-hydroxy-1H-pyrazolo[3,4-d]pyrimidin-4(5H)-one] | 44 nM | 38 nM | – | – |
| CC(c1ccc(OC(F)(F)F)c(F)c1)n1nc(C(F)F)c2c(=O)[nH]c(O)nc21 (single isomer, unassigned) [Example 288, (S)- or (R)-3-(Difluoromethyl)-1-(1-(3-fluoro-4-(trifluoromethoxy)phenyl)ethyl)-6-hydroxy-1H-pyrazolo[3,4-d]pyrimidin-4(5H)-one] | 1.6 nM | 2.4 nM | – | – |
| CC(c1ccc(OC(F)(F)F)c(F)c1)n1nc(CC#N)c2c(=O)[nH]c(O)nc21 (single isomer, unassigned) [Example 299, (R)- or (S)-2-(1-(1-(3-Fluoro-4-(trifluoromethoxy)phenyl)ethyl)-6-hydroxy-4-oxo-4,5-dihydro-1H-pyrazolo[3,4-d]pyrimidin-3-yl)acetonitrile] | 21 nM | 17 nM | – | – |
| CC(c1ccc(OC(F)(F)F)cc1)n1nc(CO)c2c(=O)[nH]c(O)nc21 (stereo not shown) [Example 5] | 126 nM | – | 77 nM | 59 nM |
| CC(c1ccc(C2CC2)cc1)n1nc(CO)c2c(=O)[nH]c(O)nc21 (stereo not shown) [Example 6, 1-(1-(4-Cyclopropylphenyl)ethyl)-6-hydroxy-3-(hydroxymethyl)-1H-pyrazolo[3,4-d]pyrimidin-4(5H)-one] | – | – | 78 nM | 50 nM |

More lines, now with the values ahead:

| Ki (Rhesus PDE2A3; [1]) | Ki (human PDE2A1; [2]) | Ki (Rhesus PDE2A3; [3]) | Ki (human PDE2A1; [4]) | Structure (SMILES) |
| --- | --- | --- | --- | --- |
| 1.8 nM | 1.9 nM | – | – | O=c1[nH]c(O)nc2c1c(C(F)F)nn2C(c1ccc(C(F)(F)F)cc1)C1CC1 (single isomer, unassigned) [Example 279, (R)- or (S)-1-(Cyclopropyl(4-(trifluoromethyl)phenyl)methyl)-3-(difluoromethyl)-6-hydroxy-1H-pyrazolo[3,4-d]pyrimidin-4(5H)-one] |
| 51 nM | 59 nM | – | – | CC(C)C(c1ccc(C(F)(F)F)cc1)n1nc(C(F)F)c2c(=O)[nH]c(O)nc21 (single isomer, unassigned) [Example 282, (S)- or (R)-3-(Difluoromethyl)-6-hydroxy-1-(2-methyl-1-(4-(trifluoromethyl)phenyl)propyl)-1H-pyrazolo[3,4-d]pyrimidin-4(5H)-one] |
| 1.5 nM | 2.2 nM | – | – | CCC(c1ccc(C(F)(F)F)cc1)n1nc(C(F)F)c2c(=O)[nH]c(O)nc21 (single isomer, unassigned) [Example 286, (S)- or (R)-3-(Difluoromethyl)-6-hydroxy-1-(1-(4-(trifluoromethyl)phenyl)propyl)-1H-pyrazolo[3,4-d]pyrimidin-4(5H)-one] |
| 8.6 nM | 7.3 nM | – | – | N#CCc1nn(C(c2ccc(C(F)(F)F)cc2)C2CC2)c2nc(O)[nH]c(=O)c12 (single isomer, unassigned) [Example 296] |
